One experiment concerns Firefly luciferase.
Test: not given
Conditions: amino-luciferin as substrate, literature value; cited from earlier work.
Regarding amino-luciferin [reference compound], the “maximal emission reported by White et al., JACS (1966) 88: 2015” value is 605 nm.

A further experiment has as its system Firefly luciferase. The experiment can be described thus: Luciferase assay: emission spectrum of purified luciferase with luciferin substrates. The settings on record: substrate of purified firefly luciferase, pH 7.8, Spex Fluoromax-3.
`CCNc1ccc2nc(C3=N[C@@H](C(=O)O)CS3)sc2c1` [ethylamino, D-2-(6′-ethylamino-2′-benzothiazolyl)-Δ^2-thiazoline-4-carboxylic acid] displayed a maximal emission of 607 nm.

`O=C(O)[C@H]1CSC(c2nc3ccc(O)cc3s2)=N1` [D-luciferin, reference compound]: the maximal emission was determined as 555 nm.

Compound amino-luciferin [reference compound] had a maximal emission of 593 nm.

With `CC(C)Nc1ccc2nc(C3=N[C@@H](C(=O)O)CS3)sc2c1` [isopropylamino, D-2-(6′-isopropylamino-2′-benzothiazolyl)-Δ^2-thiazoline-4-carboxylic acid], the maximal emission is reported as 607 nm.

For the compound `CCCCNc1ccc2nc(C3=N[C@@H](C(=O)O)CS3)sc2c1` [n-butylamino, D-2-(6′-butylamino-2′-benzothiazolyl)-Δ^2-thiazoline-4-carboxylic acid], the maximal emission was 607 nm.

In turn, `CN(C)c1ccc2nc(C3=N[C@@H](C(=O)O)CS3)sc2c1` [dimethylamino-luciferin (1a), D-2-(6′-dimethylamino-2′-benzothiazolyl)-Δ^2-thiazoline-4-carboxylic acid] registered a maximal emission of 624 nm.

The values are drawn from patent US8216550B2, “Luciferins” (University of Massachusetts, priority 2007, dated 2012).
